How the values were obtained:
[1] = test system: choice accuracy in rats; assay: Spatial delayed alternation test; format: in vivo
[2] = target: T1, human mGlu8 receptor (Homo sapiens, UniProt O00222); assay: mGlu8 receptor selectivity, cAMP accumulation screening at 10 µM; format: cell-based; conditions: group III mGlu receptors
T1 construct: expressed in transfected cells; host or cells: T-REx 293 (tetracycline-inducible)
Procedure: The cell lines with the tetracycline-inducible expression of human metabotropic receptors 4, 7, and 8 were described in detail by Chruścicka et al. (mGlu4 receptor NM_000841, mGlu7 receptor NM_000844.2, and mGlu8 receptor NM_000845). Cells were grown under standard cell culture conditions (37 °C, 5% CO2) in DMEM supplemented with 10% tetracycline-free FBS. The expression was induced through the addition of tetracycline to the culture medium at 0.75 μg/mL.
The determination of the intracellular cAMP through homogeneous time-resolved fluorescence (HTRF) was described in detail previously. […] The intracellular concentration of cyclic AMP was measured by means of a cAMP Gi HTRF kit from Cisbio, according to the manufacturer’s instructions. After 1 h of incubation at room temperature, the fluorescence at 620 nm and 665 nm was read (Tecan Infinite M1000). The results were calculated as the 665 nm/620 nm ratio multiplied by 10^4. […] Data were analyzed using GraphPad Prism version 5.04 for Windows (GraphPad Software, San Diego, USA).
Firstly, all compounds were screened at 10 μM using three cell lines expressing the mGlu4/7/8 receptor to evaluate selectivity. […] For compounds that passed the screening procedure, the dose–response curve in the presence of LSP4-2022 in 5 μM was evaluated compared to reference NAM ADX71743. […]

[3] = test system: MK-801-induced disruptions of social interactions in mice; assay: Social interaction test (MK-801-induced deficits); format: in vivo; conditions: all tested doses
Procedure: The method was adapted from de Moura Linck et al., 2008 [57], and Woźniak et al., 2016 [58]. After the 2-day habituation trial (10 min/day), a pair of mice was placed in the open field for 5 min. The social interactions between the two mice were determined based on the total time spent participating in social behavior, such as genital investigation, sniffing, chasing, and fighting each other. The total number of social episodes was also measured. The test was video-recorded and viewed by a trained observer.

[4] = Pharmacokinetics of ALX-171 after i.v. and p.o. administration; format: in vivo; conditions: mouse, female BALB/c mice
[5] = test system: DOI-induced head twitches in mice; assay: DOI-induced head twitch test; format: in vivo
Procedure: The experiments were performed according to the procedure described in our previous studies. Briefly, to habituate mice to the experimental environment, each animal was transferred to a 12 cm (diameter) × 20 cm (height) glass cage lined with sawdust 30 min before treatment. Test compounds were administered intraperitoneally (i.p.) at doses of 2.5, 5, and 10 mg/kg body weight 60 min before the test was performed. The head twitch response (HTR) in mice was induced using DOI (2.5 mg/kg, i.p.). Immediately after treatment, the number of head twitches was counted during a 20 min session.

T1 sequence (O00222 34-908): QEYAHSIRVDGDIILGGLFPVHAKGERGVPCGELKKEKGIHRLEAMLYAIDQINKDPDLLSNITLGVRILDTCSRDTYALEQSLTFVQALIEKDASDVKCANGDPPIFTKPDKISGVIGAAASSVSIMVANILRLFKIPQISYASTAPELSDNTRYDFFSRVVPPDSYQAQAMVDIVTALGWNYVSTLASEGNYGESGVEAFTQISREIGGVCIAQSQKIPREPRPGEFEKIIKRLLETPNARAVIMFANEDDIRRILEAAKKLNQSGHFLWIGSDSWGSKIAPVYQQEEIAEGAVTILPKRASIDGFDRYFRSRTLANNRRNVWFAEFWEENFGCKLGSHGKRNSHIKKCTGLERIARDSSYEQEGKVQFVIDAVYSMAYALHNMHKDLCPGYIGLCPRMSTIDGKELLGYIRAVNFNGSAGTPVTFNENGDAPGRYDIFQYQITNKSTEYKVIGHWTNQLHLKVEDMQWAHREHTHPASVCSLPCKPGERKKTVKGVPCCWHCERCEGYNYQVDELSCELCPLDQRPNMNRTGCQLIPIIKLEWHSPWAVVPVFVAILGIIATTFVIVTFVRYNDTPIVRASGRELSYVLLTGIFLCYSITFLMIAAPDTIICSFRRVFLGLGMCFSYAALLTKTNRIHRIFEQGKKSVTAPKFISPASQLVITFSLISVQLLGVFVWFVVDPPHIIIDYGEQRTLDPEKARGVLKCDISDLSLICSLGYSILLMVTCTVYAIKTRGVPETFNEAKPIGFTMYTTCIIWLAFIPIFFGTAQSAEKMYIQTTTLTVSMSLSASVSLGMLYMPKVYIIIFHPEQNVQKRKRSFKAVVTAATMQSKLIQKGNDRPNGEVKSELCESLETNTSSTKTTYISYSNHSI

## COc1cccc(-c2ccc3nc(-c4ccccc4Cl)n(C)c(=O)c3c2)c1OC [ALX-171, 2-(2-chlorophenyl)-6-(2,3-dimethoxyphenyl)-3-methylquinazolin-4(3H)-one]
[1]
  choice accuracy, compound administered alone: no negative effect
[1]; highest dose tested 5 mg/kg
  MK-801-induced disruptions in the number of alternations: reversed
[2]
  selectivity over mGlu8: selective
[3]
  MK-801-induced disruption in the interaction time: reversed
  MK-801-induced disruption in the number of episodes: reversed
[4]; iv, brain, i.v. 3 mg/kg
  AUC(0-t): 3.27 µM·h
  Cmax: 1850 nM
  Tmax: 0.25 h
  half-life: 3.41 h
[4]; iv, plasma, i.v. 3 mg/kg
  AUC(0-t): 2.91 µM·h
  Cmax: 1590 nM
  Tmax: 0.25 h
  Vd: 7.63 L/kg
  half-life: 2.26 h
[4]; plasma, oral, p.o. 5 mg/kg vs i.v. 3 mg/kg, read-out: F (peroral bioavailability)
  bioavailability: 58%
[4]; po, brain, p.o. 5 mg/kg
  AUC(0-t): 2.97 µM·h
  Cmax: 1360 nM
  Tmax: 0.5 h
  half-life: 2.95 h
[4]; po, plasma, p.o. 5 mg/kg
  AUC(0-t): 2.63 µM·h
  Cmax: 1090 nM
  Tmax: 0.5 h
  half-life: 3.08 h
[5]; mGlu7 KO mice
  DOI-induced head twitches in mGlu7 knockout (KO) mice: had no further effect
[5]; mice, 2.5, 5, and 10 mg/kg i.p., vs control group
  number of DOI-induced head shakes: significantly attenuated

— publication PMC9916658, “Design and Synthesis of New Quinazolin-4-one Derivatives with Negative mGlu7 Receptor Modulation Activity and Antipsychotic-Like Properties” (International Journal of Molecular Sciences, 2023)
